Test results taken from US9631001B2, “Peptide antagonists of the vasopressin-2 receptor” (COMMISSARIAT A L'ENERGIE ATOMIQUE ET AUX ENERGIES …, priority 2012, dated 2017).

Tests used:
Format in all cases: cell-based
[1] = tested on: 157 GPCRs; test: FLIPR agonist/antagonist profiling on 157 GPCRs; settings: 1 μM U-Da2a
Protocol: Percentage activation and percentage inhibition values were determined on each GPCR. […] Percentage inhibition values were determined upon addition of a reference agonist at an estimated EC80 concentration. All wells were prepared using EMD Millipore's GPCRProfiler® Assay Buffer. The GPCRProfiler® Assay Buffer was a modified Hanks Balanced Salt Solution (HBSS) where HBSS was supplemented to contain 20 mM HEPES and 2.5 mM Probenecid at pH7.4. […] The agonist assay was a total of 180 seconds and was used to assess each compound's ability to activate each GPCR assayed. […] The antagonist assay was conducted using the same assay plate and the same apparatus that was used for the agonist assay. All assay plate data were subjected to appropriate baseline corrections. After baseline corrections were applied, maximum fluorescence values were exported and data processed to calculate percentage activation (relative to Emax reference agonist and vehicle control values), percentage inhibition (relative to EC80 and vehicle control values), and additional statistical values (i.e. Z′, percentage variation between replicate data values) to assess the quality of each plate. Where assay plate data were rejected, additional experiments were conducted.

[2] = target: T1, Cav1.2 (Homo sapiens, UniProt Q13936); test: IonWorks electrophysiological assay; settings: 1 μM
T1 construct: expressed in transfected cells
Protocol: (§1) The stock solution was transferred to a master plate and into assay plates where 2 μl per well of the solution were placed. On the day of the assay, 198 μl of external solution containing the appropriate DMSO concentration was added and mixed thoroughly. This provided a 1:100 dilution. A further 1:3 dilution occurred upon addition to the cells in the IonWorks, giving a 1:300 dilution in total. On each assay plate, at least 8 wells were reserved for vehicle control (0.3% DMSO) and at least 8 wells for each positive control specific to the cell line tested. The positive controls were tested at a maximal blocking and an approximate IC50 concentration. The compounds used for positive controls: Nav1.5 100 μM and 5 mM Lidocaine, Kv4.3/KChIP2 20 μM and 500 μM Quinidine, Cav1.2 1 μM and 100 μM Nitrendipine, Kv1.5 300 μM and 10 mM 4-AP, KCNQ1/minK 10 μM and 100 μM Chromanol 293B, hERG 0.1 μM and 1 μM Cisapride, HCN4 50 μM and 3 mM Cesium, Kir2.1 20 μM and 500 μM Barium.

[3] = target: T2, Kir2.1 (Homo sapiens, UniProt P63252); test: IonWorks electrophysiological assay; settings: 1 μM
T2 construct: expressed in transfected cells
T2 sequence (P63252 1-427): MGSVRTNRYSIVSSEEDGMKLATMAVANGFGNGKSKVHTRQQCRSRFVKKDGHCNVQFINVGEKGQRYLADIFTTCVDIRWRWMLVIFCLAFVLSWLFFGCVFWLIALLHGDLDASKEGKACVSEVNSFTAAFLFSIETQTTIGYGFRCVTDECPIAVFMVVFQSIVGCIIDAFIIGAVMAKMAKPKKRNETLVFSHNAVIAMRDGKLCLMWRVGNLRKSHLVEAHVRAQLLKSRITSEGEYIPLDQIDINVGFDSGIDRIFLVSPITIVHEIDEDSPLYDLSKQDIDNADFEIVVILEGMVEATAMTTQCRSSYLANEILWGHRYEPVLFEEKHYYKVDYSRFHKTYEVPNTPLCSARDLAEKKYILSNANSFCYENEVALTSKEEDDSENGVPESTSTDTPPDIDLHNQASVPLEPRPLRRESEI
Protocol: as §1

[4] = target: T3, Kv1.5 (Homo sapiens, UniProt P22460); test: IonWorks electrophysiological assay; settings: 1 μM
T3 construct: expressed in transfected cells
Protocol: as §1

[5] = target: T4, Kv4.3/KChIP2 (Homo sapiens, UniProt Q9UK17); test: IonWorks electrophysiological assay; settings: 1 μM
T4 construct: expressed in transfected cells
T4 sequence (Q9UK17 1-655): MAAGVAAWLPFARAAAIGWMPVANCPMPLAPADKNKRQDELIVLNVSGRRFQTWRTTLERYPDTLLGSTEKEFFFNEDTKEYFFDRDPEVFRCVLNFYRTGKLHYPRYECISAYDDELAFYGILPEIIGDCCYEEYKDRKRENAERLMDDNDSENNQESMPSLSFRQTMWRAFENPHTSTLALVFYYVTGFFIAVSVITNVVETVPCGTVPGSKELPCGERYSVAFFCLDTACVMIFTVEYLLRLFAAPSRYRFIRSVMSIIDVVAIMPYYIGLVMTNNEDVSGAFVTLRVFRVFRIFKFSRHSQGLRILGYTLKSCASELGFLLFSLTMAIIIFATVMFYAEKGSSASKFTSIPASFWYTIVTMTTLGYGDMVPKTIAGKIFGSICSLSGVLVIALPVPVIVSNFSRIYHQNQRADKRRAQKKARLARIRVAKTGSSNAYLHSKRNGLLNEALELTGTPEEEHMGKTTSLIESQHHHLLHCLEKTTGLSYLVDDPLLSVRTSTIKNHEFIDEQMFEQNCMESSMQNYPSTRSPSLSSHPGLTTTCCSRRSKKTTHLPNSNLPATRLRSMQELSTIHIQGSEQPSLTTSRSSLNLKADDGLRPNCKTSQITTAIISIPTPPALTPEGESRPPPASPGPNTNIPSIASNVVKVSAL
T4 sequence (Q9NS61 1-270 partner): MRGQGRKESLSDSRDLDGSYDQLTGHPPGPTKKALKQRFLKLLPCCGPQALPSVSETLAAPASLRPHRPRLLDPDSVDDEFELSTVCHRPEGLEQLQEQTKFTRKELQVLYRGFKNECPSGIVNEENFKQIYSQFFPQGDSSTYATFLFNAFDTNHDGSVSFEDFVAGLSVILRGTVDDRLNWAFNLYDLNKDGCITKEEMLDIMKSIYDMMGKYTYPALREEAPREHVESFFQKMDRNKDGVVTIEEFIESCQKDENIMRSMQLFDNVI
Protocol: as §1

[6] = target: T5, Nav1.5 (Homo sapiens, UniProt Q14524); test: IonWorks electrophysiological assay; settings: 1 μM
T5 construct: expressed in transfected cells
Protocol: as §1

[7] = target: T6, hERG (Homo sapiens, UniProt Q12809); test: IonWorks electrophysiological assay; settings: 1 μM
T6 construct: expressed in transfected cells
Protocol: as §1

[8] = target: T7, hV2-Rluc receptor (Homo sapiens, UniProt P30518); test: β-arrestin-1-YFP mobilization (BRET) to V2-Rluc in tsA cells
T7 construct: expressed in transfected cells; host or cells: tsA cells (HEK293 derivative), transiently transfected
T7 sequence (P30518 whole entry): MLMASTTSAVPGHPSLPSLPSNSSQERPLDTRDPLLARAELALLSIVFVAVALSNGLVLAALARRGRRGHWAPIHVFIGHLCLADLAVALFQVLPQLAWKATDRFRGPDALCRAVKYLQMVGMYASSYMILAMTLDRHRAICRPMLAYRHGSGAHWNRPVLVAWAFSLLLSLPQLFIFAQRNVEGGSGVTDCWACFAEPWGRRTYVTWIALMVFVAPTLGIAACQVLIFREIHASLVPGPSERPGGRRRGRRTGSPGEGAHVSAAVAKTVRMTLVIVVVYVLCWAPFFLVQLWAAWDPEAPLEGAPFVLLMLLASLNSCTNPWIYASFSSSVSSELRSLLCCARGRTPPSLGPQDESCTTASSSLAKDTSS
Protocol: 2.5×10^6 tsA cells, a transformed human kidney (HEK293) cell line stably expressing an SV40 temperature sensitive T antigen (ECACC), transiently transfected with 150 ng of pRK5 expression plasmid for hV2Rluc ([sequence] #556104, BD BIOSCIENCE; Terrillon et al., Mol. Endocrinol., 2003, 17, 677-691) and with 1 μg of an expression plasmid for β-arrestin-1-YFP ((β-arrestin cloned into pEYFP-N1 (CLONTECH); Scott et al., J. Biol. Chem., 2002, 277, 3552-3559) were seeded in 6-well plates. 48 h after transfection, cells were washed with KREBS buffer containing 146 mM NaCl, 4.2 mM KCl, 0.5 mM MgCl2, 1 mM CaCl2, 10 mM HEPES pH 7.4, 1 mg/ml glucose and resuspended in 1 ml of this buffer. Bioluminescence Resonance Energy Transfer (BRET™) measurements between the V2-Rluc and β-arrestin-1-YFP were performed in 96-well plates with a final volume of 50 μl containing 30 μl of cell suspension (75,000 cells), 10 μl of KREBS buffer (control condition) or the mix of ligands containing either increasing concentrations of vasopressin (stimulated control condition) or in the presence of increasing concentrations of toxin (stimulated condition with inhibitor).

T6 sequence (Q12809 whole entry): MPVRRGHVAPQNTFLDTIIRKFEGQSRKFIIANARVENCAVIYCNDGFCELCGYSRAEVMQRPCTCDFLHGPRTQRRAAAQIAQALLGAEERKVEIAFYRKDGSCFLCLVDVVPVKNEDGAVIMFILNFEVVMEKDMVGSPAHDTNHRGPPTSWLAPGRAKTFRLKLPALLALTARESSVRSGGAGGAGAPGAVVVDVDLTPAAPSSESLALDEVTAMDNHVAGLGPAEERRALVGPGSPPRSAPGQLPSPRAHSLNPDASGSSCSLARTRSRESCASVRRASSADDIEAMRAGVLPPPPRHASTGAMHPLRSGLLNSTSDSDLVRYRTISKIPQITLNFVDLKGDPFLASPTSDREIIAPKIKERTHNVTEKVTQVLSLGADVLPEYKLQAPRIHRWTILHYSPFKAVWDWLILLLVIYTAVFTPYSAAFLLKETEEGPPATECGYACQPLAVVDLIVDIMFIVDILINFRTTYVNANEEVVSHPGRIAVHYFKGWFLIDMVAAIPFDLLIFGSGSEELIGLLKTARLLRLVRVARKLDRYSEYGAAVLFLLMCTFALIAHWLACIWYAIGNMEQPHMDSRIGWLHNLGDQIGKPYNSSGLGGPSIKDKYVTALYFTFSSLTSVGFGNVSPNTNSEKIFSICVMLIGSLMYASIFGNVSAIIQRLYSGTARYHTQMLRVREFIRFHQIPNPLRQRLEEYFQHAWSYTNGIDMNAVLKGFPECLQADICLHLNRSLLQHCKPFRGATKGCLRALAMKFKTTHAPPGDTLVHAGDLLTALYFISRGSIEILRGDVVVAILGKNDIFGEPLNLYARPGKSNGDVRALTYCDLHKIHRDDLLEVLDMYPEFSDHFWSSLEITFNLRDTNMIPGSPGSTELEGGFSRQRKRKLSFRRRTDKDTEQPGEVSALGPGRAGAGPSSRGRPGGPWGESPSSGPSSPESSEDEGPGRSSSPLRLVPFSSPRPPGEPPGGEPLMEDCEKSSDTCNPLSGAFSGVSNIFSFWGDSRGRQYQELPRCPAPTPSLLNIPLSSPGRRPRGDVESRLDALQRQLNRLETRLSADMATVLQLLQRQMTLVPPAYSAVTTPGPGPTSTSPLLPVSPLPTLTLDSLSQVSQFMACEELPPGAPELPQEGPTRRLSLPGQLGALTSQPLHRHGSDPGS
T5 sequence (Q14524 whole entry): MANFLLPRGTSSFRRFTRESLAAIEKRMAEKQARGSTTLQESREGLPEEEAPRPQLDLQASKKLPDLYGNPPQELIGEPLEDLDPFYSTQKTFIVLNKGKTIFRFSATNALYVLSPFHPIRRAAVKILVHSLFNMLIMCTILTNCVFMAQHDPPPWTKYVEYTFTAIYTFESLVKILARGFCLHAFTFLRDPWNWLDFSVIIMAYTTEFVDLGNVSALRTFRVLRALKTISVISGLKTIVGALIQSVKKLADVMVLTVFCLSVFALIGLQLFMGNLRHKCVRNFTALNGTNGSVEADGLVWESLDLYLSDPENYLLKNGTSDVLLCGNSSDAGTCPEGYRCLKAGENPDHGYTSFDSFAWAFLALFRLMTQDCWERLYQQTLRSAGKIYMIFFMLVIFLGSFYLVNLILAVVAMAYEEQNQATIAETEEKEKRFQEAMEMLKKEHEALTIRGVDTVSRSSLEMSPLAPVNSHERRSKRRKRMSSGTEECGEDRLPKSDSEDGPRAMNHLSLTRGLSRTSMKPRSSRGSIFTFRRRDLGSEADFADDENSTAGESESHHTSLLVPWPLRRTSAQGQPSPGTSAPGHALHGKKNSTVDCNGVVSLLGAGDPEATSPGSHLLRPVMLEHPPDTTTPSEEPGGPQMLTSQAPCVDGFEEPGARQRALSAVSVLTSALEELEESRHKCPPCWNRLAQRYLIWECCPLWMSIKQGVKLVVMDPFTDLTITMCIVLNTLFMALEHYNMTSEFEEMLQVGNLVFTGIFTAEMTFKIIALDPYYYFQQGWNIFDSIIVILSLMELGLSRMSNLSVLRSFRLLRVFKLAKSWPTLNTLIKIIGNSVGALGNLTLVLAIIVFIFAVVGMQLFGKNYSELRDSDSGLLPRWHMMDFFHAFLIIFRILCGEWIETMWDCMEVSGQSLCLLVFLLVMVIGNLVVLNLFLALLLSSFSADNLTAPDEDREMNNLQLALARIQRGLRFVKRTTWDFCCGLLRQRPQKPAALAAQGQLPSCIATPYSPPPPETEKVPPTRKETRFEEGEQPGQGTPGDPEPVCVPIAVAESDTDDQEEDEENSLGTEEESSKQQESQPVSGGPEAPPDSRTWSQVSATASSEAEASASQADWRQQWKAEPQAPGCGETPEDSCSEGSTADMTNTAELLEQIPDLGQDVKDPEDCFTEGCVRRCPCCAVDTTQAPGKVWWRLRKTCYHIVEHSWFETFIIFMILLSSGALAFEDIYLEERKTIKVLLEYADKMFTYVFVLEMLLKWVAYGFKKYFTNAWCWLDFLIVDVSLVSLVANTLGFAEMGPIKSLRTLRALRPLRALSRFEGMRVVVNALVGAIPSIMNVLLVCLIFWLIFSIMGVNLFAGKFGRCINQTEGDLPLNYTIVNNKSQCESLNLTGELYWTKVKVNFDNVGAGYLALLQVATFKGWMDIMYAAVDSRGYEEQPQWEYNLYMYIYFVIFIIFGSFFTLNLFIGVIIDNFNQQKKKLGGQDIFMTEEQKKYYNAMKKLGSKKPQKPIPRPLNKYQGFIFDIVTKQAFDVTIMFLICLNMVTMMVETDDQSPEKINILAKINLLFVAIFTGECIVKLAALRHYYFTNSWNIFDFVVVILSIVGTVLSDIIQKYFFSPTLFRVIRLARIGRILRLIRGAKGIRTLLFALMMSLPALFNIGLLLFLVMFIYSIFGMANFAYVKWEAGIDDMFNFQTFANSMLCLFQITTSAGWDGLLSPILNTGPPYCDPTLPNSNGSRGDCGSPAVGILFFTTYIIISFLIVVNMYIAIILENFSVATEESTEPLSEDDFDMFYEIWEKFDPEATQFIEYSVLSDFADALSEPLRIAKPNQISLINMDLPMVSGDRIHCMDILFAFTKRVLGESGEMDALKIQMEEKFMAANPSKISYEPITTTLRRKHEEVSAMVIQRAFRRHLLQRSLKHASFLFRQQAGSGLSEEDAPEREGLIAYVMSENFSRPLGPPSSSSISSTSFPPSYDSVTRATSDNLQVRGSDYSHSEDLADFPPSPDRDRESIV
T3 sequence (P22460 whole entry): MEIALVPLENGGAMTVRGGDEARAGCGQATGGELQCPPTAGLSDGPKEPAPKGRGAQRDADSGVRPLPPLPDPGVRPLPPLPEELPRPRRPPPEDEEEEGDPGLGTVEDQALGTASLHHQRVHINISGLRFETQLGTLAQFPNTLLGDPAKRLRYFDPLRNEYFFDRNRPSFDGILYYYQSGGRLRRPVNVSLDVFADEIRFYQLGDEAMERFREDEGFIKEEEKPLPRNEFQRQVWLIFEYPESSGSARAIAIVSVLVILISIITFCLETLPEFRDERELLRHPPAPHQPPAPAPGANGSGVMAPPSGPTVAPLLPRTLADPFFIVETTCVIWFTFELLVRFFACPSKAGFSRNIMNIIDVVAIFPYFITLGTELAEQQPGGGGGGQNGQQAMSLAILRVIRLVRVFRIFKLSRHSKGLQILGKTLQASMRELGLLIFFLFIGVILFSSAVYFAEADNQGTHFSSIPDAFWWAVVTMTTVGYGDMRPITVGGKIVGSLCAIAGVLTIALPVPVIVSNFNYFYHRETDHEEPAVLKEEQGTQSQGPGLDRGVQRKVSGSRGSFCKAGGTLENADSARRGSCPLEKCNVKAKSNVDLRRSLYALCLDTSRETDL

CC[C@H](C)[C@@H]1NC(=O)[C@H]([C@@H](C)O)NC(=O)[C@H](CO)NC(=O)[C@H](Cc2ccccc2)NC(=O)[C@H](CCCNC(=N)N)NC(=O)[C@H](CC(N)=O)NC(=O)[C@H](C)NC(=O)[C@H](CC(N)=O)NC(=O)CNC(=O)[C@H](CCCCN)NC(=O)[C@@H]2CSSC[C@@H]3NC(=O)[C@@H]4CCCN4C(=O)CNC(=O)[C@@H]4CCCN4C(=O)[C@H](CCCCN)NC(=O)[C@H](C(C)C)NC(=O)[C@@H]4CCCN4C(=O)[C@H](CC(C)C)NC(=O)[C@H](CC(N)=O)NC(=O)[C@@H](NC(=O)[C@H](Cc4ccccc4)NC(=O)[C@H](CO)NC(=O)[C@@H]4CCCN4C(=O)[C@@H](N)CCCNC(=N)N)CSSC[C@@H](C(=O)N[C@H](C(=O)NCC(=O)O)C(C)C)NC(=O)[C@H]([C@@H](C)O)NC(=O)[C@H](CCCNC(=N)N)NC(=O)[C@H](CCCNC(=N)N)NC(=O)[C@H](CSSC[C@H](NC(=O)[C@H](CCCCN)NC(=O)[C@H](CC(N)=O)NC(=O)[C@H]([C@@H](C)O)NC(=O)[C@H](CCCCN)NC(=O)[C@H](CCC(N)=O)NC(=O)[C@H](CO)NC(=O)[C@H](Cc4ccc(O)cc4)NC(=O)[C@H](Cc4ccc(O)cc4)NC(=O)[C@H](Cc4ccccc4)NC(=O)[C@H](C)NC(=O)[C@H](CO)NC(=O)[C@H](Cc4ccccc4)NC(=O)[C@H](Cc4ccccc4)NC(=O)CNC(=O)[C@H](CC(N)=O)NC3=O)C(=O)N[C@@H](Cc3c[nH]cn3)C(=O)N[C@@H](CO)C(=O)N[C@@H](Cc3ccccc3)C(=O)N[C@@H]([C@@H](C)O)C(=O)N[C@@H](Cc3ccc(O)cc3)C(=O)NCC(=O)NCC(=O)N2)NC(=O)[C@H](CCCCN)NC(=O)[C@H](CCC(=O)O)NC1=O [U-Da2a]
agonist and antagonist activity on 157 GPCRs [1]: detected only on V2R
inhibition of Cav1.2 [2]: did not appear to exhibit significant inhibition
inhibition of Kir2.1 [3]: did not appear to exhibit significant inhibition
inhibition of Kv1.5 [4]: did not appear to exhibit significant inhibition
inhibition of Kv4.3/KChIP2 [5]: did not appear to exhibit significant inhibition
inhibition of Nav1.5 [6]: did not appear to exhibit significant inhibition
inhibition of hERG [7]: did not appear to exhibit significant inhibition
Kb [8]: 100 nM
